This is an account of results in US9938261B2, “Heterocyclic compounds and methods of use thereof” (AMBIT BIOSCIENCES CORPORATION, priority 2011, dated 2018).

Usually Kd stands for the constant that tells how readily two partners part at equilibrium. A lower Kd goes with tighter binding. As usually defined, the IC50 is the concentration at which inhibition is half-maximal.

Assay [1] has as its target kinase panel containing either 386 or 392 distinct kinases. The assay is described as follows: Kinase selectivity score S10 from competition binding panel. The note with it: compounds at 10 μM; 386 or 392 distinct kinases. The protocol: Competition binding assays used herein were developed, validated and performed as described in Fabian et al., Nature Biotechnology 2005, 23, 329-336. Kinases were produced as fusions to T7 phage (See, Fabian et al. or WO04/015142) or alternatively, the kinases were expressed in HEK-293 cells and subsequently tagged with DNA for PCR detection (See, WO08/005310). For the binding assays, streptavidin-coated magnetic beads were treated with biotinylated affinity ligands for 30 min at room temperature to generate affinity resins. The liganded beads were blocked with excess biotin and washed with blocking buffer (SeaBlock (Pierce), 1% BSA, 0.05% Tween 20, 1 mM DTT) to remove unbound ligand and to reduce non-specific binding. Binding reactions were assembled by combining kinase, liganded affinity beads, and test compounds in 1× binding buffer (20% SeaBlock, 0.17×PBS, 0.05% Tween 20, 6 mM DTT). Test compounds were prepared as 100× stocks in DMSO and diluted into the aqueous environment. Kds were determined using an eleven point threefold serial dilutions. DMSO or control compounds were was added to control assays lacking a test compound. Primary screen assays were performed in polypropylene 384-well plates in a final volume of 20-40 μL, while Kd determinations were performed in polystyrene 96-well plates in a final volume of 135 μL. The assay plates were incubated at room temperature with shaking for 1 hour to allow the binding reactions to reach equilibrium, and the affinity beads were washed extensively with wash buffer (1×PBS, 0.05% Tween 20) to remove unbound protein. The beads were then resuspended in elution buffer (1×PBS, 0.05% Tween […] non-biotinylated affinity ligand) and incubated at room temperature with shaking for 30 min. The kinase concentration in the eluates was measured by quantitative PCR.
A selectivity score (S10) is a quantitative measure of selectivity of a compound against a panel of kinases. An S10 was calculated for a compound by dividing the number of kinases found to have a percent of control (DMSO) less than 10 by the total number of distinct kinases tested (excluding mutant variants). Percent of control (POC) is calculated by subtracting the signal of the control compound (POC=0) from the signal of the test compound and dividing the outcome by the signal of DMSO (POC=100) minus the signal of the control compound. For the compounds disclosed herein, S10 scores were obtained by testing the compounds at 10 μM concentration in a kinase panel containing either 386 or 392 distinct kinases.

For the next assay, the target named is T1, KIT (Homo sapiens, UniProt P10721).
T1 construct: made in house
T1 sequence (P10721 26-976): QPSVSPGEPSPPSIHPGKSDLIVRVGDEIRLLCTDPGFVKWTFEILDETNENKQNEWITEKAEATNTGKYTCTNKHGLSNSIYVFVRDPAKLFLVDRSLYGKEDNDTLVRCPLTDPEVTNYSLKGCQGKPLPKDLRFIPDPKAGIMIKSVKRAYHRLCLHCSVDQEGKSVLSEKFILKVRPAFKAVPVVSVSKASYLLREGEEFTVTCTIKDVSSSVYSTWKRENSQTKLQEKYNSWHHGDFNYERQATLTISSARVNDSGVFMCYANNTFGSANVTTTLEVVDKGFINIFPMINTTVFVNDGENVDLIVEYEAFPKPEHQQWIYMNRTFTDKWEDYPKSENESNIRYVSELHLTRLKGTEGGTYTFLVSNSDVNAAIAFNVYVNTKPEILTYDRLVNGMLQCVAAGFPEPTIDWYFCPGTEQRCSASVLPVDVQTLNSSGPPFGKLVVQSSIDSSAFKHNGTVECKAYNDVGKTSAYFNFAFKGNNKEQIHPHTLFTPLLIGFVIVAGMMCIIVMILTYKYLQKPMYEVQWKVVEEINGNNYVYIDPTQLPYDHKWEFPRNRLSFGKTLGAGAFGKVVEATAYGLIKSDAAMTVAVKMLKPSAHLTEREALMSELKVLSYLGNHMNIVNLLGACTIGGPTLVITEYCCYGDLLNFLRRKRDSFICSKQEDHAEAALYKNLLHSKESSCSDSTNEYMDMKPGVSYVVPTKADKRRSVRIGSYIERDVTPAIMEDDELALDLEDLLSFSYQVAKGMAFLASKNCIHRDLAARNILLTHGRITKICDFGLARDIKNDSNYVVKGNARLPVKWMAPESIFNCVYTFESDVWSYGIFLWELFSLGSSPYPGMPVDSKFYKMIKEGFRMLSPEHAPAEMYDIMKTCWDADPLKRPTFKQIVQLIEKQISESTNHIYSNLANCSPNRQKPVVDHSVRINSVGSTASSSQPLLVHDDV
As to the kind of experiment: Competition binding assay, KIT Kd. In outline: (§1)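 Compound displacement of kinase from bead-immobilized ligand is measured by qPCR after 1 h equilibration at room temperature. Kinases are T7 phage fusions or DNA-tagged HEK-293 products.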

The next assay concerns the target T2, PDGFRβ (Homo sapiens, UniProt P09619).
T2 construct: made in house
The assay is described as follows: Competition binding assay, PDGFRβ Kd. In outline: as §1

The test system of the next assay is M-NFS-60 cells. As to the kind of experiment: M-NFS-60 cell proliferation assay (Alamar Blue). Format: cell-based, mouse. The note with it: Mus musculus; 72 hours incubation, M-CSF 20 ng/mL; read-out: CSF1R M-NFS-60 CTB:IC50. In outline: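 Mouse M-NFS-60 cells growing on 20 ng/mL M-CSF in RPMI/10% FBS were exposed to compounds (9 half-log concentrations, 0.5% DMSO) for 72 h at 37 °C. Viability read by Alamar Blue fluorescence (ex 560/em 590 nm, 3 h). IC50 = 50% proliferation inhibition versus control, mean of duplicates.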

Another assay has as its target CSF1R (Homo sapiens, UniProt P07333). The assay is described as follows: Competition binding assay, CSF1R Kd. Also noted: made in house. In outline:
as §1

Some results are limits rather than exact numbers.

Sequence of CSF1R (P07333 20-972): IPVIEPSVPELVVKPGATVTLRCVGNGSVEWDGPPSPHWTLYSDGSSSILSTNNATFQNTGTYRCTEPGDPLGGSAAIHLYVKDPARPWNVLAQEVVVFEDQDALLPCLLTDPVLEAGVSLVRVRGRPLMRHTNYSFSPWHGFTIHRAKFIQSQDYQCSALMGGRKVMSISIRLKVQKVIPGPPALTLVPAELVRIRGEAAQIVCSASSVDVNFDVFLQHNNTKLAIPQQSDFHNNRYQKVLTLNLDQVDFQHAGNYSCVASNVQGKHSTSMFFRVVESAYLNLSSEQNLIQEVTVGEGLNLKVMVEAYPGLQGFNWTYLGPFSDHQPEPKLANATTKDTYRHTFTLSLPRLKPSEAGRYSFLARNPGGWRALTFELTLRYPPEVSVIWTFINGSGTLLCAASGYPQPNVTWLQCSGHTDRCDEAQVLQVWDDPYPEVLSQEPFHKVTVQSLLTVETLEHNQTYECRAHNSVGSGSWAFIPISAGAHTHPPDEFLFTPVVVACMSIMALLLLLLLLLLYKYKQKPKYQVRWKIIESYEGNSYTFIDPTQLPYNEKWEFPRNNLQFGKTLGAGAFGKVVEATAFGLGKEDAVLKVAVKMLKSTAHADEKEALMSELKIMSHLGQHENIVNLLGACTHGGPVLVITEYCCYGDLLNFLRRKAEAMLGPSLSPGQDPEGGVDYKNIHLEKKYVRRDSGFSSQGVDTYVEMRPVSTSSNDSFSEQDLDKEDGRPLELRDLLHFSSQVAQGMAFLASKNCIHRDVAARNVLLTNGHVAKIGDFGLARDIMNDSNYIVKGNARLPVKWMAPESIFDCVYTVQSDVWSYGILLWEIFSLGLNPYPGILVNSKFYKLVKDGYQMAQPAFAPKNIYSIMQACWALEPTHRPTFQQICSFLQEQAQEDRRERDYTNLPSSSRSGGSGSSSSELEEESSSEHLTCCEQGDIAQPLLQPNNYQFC
T2 sequence (P09619 33-1106): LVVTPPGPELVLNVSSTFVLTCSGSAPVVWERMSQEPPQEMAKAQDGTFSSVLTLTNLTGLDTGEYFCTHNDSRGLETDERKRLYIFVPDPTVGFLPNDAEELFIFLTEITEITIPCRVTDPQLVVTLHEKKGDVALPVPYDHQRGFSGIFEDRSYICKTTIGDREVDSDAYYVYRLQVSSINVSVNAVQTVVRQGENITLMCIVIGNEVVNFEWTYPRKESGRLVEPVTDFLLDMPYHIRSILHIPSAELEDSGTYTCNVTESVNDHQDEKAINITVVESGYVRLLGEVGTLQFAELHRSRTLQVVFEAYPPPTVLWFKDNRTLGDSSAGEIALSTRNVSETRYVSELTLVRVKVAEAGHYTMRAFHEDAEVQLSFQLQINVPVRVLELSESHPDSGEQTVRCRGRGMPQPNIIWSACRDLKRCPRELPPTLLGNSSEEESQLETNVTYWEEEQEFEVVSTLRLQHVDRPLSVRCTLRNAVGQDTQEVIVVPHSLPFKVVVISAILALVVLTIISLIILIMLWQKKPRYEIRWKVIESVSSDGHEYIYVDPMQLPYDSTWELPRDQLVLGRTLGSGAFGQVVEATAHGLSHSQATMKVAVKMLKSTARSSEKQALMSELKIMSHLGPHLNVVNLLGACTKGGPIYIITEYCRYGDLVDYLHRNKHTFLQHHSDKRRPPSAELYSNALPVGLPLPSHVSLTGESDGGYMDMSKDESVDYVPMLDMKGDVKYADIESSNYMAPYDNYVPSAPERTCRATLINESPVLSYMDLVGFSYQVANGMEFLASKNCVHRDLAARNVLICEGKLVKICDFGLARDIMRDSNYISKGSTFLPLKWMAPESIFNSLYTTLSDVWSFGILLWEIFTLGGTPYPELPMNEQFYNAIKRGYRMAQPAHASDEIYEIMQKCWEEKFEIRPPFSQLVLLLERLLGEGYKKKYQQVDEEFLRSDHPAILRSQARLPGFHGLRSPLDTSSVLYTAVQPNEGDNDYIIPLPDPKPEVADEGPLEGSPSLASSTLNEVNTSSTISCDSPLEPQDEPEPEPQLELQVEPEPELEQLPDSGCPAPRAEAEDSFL

`COc1cc2ncn(Cc3ccc4nc(N[C@@H]5CCCCC[C@H]5O)sc4c3)c2cc1OC` (racemic) [Example 50, (±)-2-((6-((5,6-dimethoxy-1H-benzo[d]imidazol-1-yl)methyl)benzo[d]thiazol-2-yl)amino)cycloheptanol]: the “Kinase specificity S(10)” value in assay [1] is given as “C (C>0.02)”. The Kd was ≤ 100 nM on KIT, ≤ 50 nM on PDGFRβ and ≤ 5 nM at CSF1R. For the same molecule, the IC50 in the assay on M-NFS-60 cells is ≤ 50 nM.

Consider `CS(=O)(=O)O.O[C@@H]1CCCC[C@H]1Nc1nc2ccc(Cn3cnc4cccnc43)cc2s1` [Example 3, (1R,2R)-2-((6-((3H-imidazo[4,5-b]pyridin-3-yl)methyl)benzo[d]thiazol-2-yl)amino)cyclohexanol methanesulfonic acid], for which, in assay [1], the “Kinase specificity S(10)” value is given as “B (0.01<B≤0.02)”. The Kd at KIT is 100 to 500 nM; at PDGFRβ, 50 to 500 nM; at CSF1R, ≤ 5 nM. In the assay with M-NFS-60 cells, the IC50 lay in the range of 50 to 400 nM.

Take `COc1cc2ncn(Cc3ccc4nc(N[C@@H](C)C5CCCCC5)sc4c3)c2cc1OC` [Example 33, (S)—N-(1-cyclohexylethyl)-6-((5,6-dimethoxy-1H-benzo[d]imidazol-1-yl)methyl)benzo[d]thiazol-2-amine]: in assay [1], the “Kinase specificity S(10)” value is “C (C>0.02)”. Further, the Kd on KIT is ≤ 100 nM; at PDGFRβ, ≤ 50 nM; at CSF1R, 5 to 20 nM. Moreover, in the assay with M-NFS-60 cells, the IC50 lay within 50 to 400 nM.

For the molecule `COc1cc2ncn(Cc3ccc4nc(N[C@@H]5CCCC[C@H]5O)oc4c3)c2cc1OC` [Example 34, (1R,2R)-2-((6-((5,6-dimethoxy-1H-benzo[d]imidazol-1-yl)methyl)benzo[d]oxazol-2-yl)amino)cyclohexanol], the “Kinase specificity S(10)” value in assay [1] is “C (C>0.02)”. Further, the values for the equilibrium dissociation constant (Kd) at KIT, at PDGFRβ and on CSF1R were 100 to 500 nM, 50 to 500 nM and 5 to 20 nM, respectively. Moreover, the concentration for half-maximal inhibition (IC50) in the assay on M-NFS-60 cells is 50 to 400 nM.

As for `COc1cc2ncn(Cc3ccc4nc(NCC5CCCCC5)oc4c3)c2cc1OC` [Example 35, N-(cyclohexylmethyl)-6-((5,6-dimethoxy-1H-benzo[d]imidazol-1-yl)methyl)benzo[d]oxazol-2-amine], the “Kinase specificity S(10)” value in assay [1] is “C (C>0.02)”. Further, the Kd is ≤ 100 nM at KIT, ≤ 50 nM on PDGFRβ and ≤ 5 nM at CSF1R. Also, in the assay on M-NFS-60 cells, the IC50 lay in the range of 50 to 400 nM.

`Cn1cc(-c2cn(Cc3ccc4nc(N[C@@H]5CCCC[C@H]5O)sc4c3)cn2)cn1` [Example 36, (1R,2R)-2-((6-((4-(1-methyl-1H-pyrazol-4-yl)-1H-imidazol-1-yl)methyl)benzo[d]thiazol-2-yl)amino)cyclohexanol]: the “Kinase specificity S(10)” value in assay [1] is on record as “A (A≤0.01)”. Besides, the results for the Kd at KIT, on PDGFRβ and on CSF1R were 500 to 2000 nM, > 2000 nM and 5 to 20 nM, respectively. In addition, the IC50 with M-NFS-60 cells was in the range of 50 to 400 nM.

In the case of `CNC(=O)c1cn(Cc2ccc3nc(N[C@@H]4CCCC[C@H]4O)sc3c2)cn1` [Example 37, 1-((2-(((1R,2R)-2-hydroxycyclohexyl)amino)benzo[d]thiazol-6-yl)methyl)-N-methyl-1H-imidazole-4-carboxamide], the “Kinase specificity S(10)” value in assay [1] is listed as “A (A≤0.01)”. The Kd on KIT was > 2000 nM; on PDGFRβ, > 2000 nM; at CSF1R it was > 50 nM. Further, the IC50 with M-NFS-60 cells is > 1500 nM.

For the molecule `O[C@@H]1CCCC[C@H]1Nc1nc2ccc(Cc3cnc4ccccn34)cc2s1` [Example 38, (1R,2R)-2-((6-(imidazo[1,2-a]pyridin-3-ylmethyl)benzo[d]thiazol-2-yl)amino)cyclohexanol], in assay [1], the “Kinase specificity S(10)” value is “A (A≤0.01)”. The Kd on KIT was 500 to 2000 nM; at PDGFRβ, > 2000 nM; on CSF1R, 20 to 50 nM. In addition, in the assay on M-NFS-60 cells, the IC50 fell in the range of 400 to 1500 nM.

For the molecule `Cn1cc(-c2cnc3c(c2)ncn3Cc2ccc3nc(N[C@@H]4CCCC[C@H]4O)sc3c2)cn1` [Example 39, (1R,2R)-2-((6-((6-(1-methyl-1H-pyrazol-4-yl)-3H-imidazo[4,5-b]pyridin-3-yl)methyl)benzo[d]thiazol-2-yl)amino)cyclohexanol], the “Kinase specificity S(10)” value in assay [1] is “C (C>0.02)”. In addition, the Kd at KIT is ≤ 100 nM; on PDGFRβ it was ≤ 50 nM; on CSF1R, ≤ 5 nM. In addition, in the assay on M-NFS-60 cells, the IC50 was ≤ 50 nM.

In the case of `O[C@@H]1CCCC[C@H]1Nc1nc2ccc(Cn3cnc4cc(-c5cccnc5)cnc43)cc2s1` [Example 40, (1R,2R)-2-((6-((6-(pyridin-3-yl)-3H-imidazo[4,5-b]pyridin-3-yl)methyl)benzo[d]thiazol-2-yl)amino)cyclohexanol], the “Kinase specificity S(10)” value in assay [1] was “B (0.01<B≤0.02)”. Further, the Kd is ≤ 100 nM at KIT, ≤ 50 nM at PDGFRβ and ≤ 5 nM at CSF1R. The concentration for half-maximal inhibition (IC50) with M-NFS-60 cells is ≤ 50 nM.

Turning to `COc1cc2c(cc1Br)ncn2Cc1ccc2nc(N[C@@H]3CCCC[C@H]3O)sc2c1` [Example 41, (1R,2R)-2-((6-((5-bromo-6-methoxy-1H-benzo[d]imidazol-1-yl)methyl)benzo[d]thiazol-2-yl)amino)cyclohexanol], the “Kinase specificity S(10)” value in assay [1] is “A (A≤0.01)”. For the same molecule, the Kd lay within 100 to 500 nM on KIT, 500 to 2000 nM at PDGFRβ and 5 to 20 nM on CSF1R. The IC50 in the assay on M-NFS-60 cells lay within 50 to 400 nM.

Take `O[C@@H]1Cc2ccccc2[C@H]1Nc1nc2ccc(Cn3cnc4cc(Br)cnc43)cc2s1` [Example 42, (1R,2R)-1-((6-((6-bromo-3H-imidazo[4,5-b]pyridin-3-yl)methyl)benzo[d]thiazol-2-yl)amino)-2,3-dihydro-1H-inden-2-ol]: in assay [1], the “Kinase specificity S(10)” value is “B (0.01<B≤0.02)”. For the same molecule, the Kd is ≤ 100 nM on KIT, ≤ 50 nM at PDGFRβ and ≤ 5 nM at CSF1R. Besides, the IC50 in the assay with M-NFS-60 cells fell in the range of 50 to 400 nM.

On to `N#Cc1cnc2c(c1)ncn2Cc1ccc2nc(N[C@@H]3CCCC[C@H]3O)sc2c1` [Example 43, 3-((2-(((1R,2R)-2-hydroxycyclohexyl)amino)benzo[d]thiazol-6-yl)methyl)-3H-imidazo[4,5-b]pyridine-6-carbonitrile], for which the “Kinase specificity S(10)” value in assay [1] is reported as “B (0.01<B≤0.02)”. In addition, the Kd at KIT was 100 to 500 nM; at PDGFRβ, 50 to 500 nM; at CSF1R, 5 to 20 nM. Moreover, the IC50 in the assay on M-NFS-60 cells fell in the range of 50 to 400 nM.

For the molecule `COc1ccn2c(Cc3ccc4nc(N[C@@H]5CCCC[C@H]5O)sc4c3)cnc2c1` [Example 44, (1R,2R)-2-((6-((7-methoxyimidazo[1,2-a]pyridin-3-yl)methyl)benzo[d]thiazol-2-yl)amino)cyclohexanol], in assay [1], the “Kinase specificity S(10)” value is given as “A (A≤0.01)”. Besides, the Kd on KIT was in the range of 500 to 2000 nM; at PDGFRβ, 500 to 2000 nM; at CSF1R it was 5 to 20 nM. Further, the IC50 in the assay with M-NFS-60 cells lay in the range of 50 to 400 nM.

On to `O[C@@H]1CCCC[C@H]1Nc1nc2ccc(Cn3cnc4cc(C5CC5)cnc43)cc2s1` [Example 45, (1R,2R)-2-((6-((6-cyclopropyl-3H-imidazo[4,5-b]pyridin-3-yl)methyl)benzo[d]thiazol-2-yl)amino)cyclohexanol], for which the “Kinase specificity S(10)” value in assay [1] is “B (0.01<B≤0.02)”. Also, the results for the Kd at KIT, at PDGFRβ and at CSF1R were ≤ 100 nM, ≤ 50 nM and ≤ 5 nM, respectively. Besides, the IC50 with M-NFS-60 cells is ≤ 50 nM.

For `O[C@@H]1Cc2ccccc2[C@H]1Nc1nc2ccc(Cn3cnc4cccnc43)cc2s1` [Example 46, (1R,2R)-1-((6-((3H-imidazo[4,5-b]pyridin-3-yl)methyl)benzo[d]thiazol-2-yl)amino)-2,3-dihydro-1H-inden-2-ol], the “Kinase specificity S(10)” value in assay [1] is reported as “B (0.01<B≤0.02)”. In addition, the figures for the Kd at KIT, on PDGFRβ and at CSF1R were 100 to 500 nM, ≤ 50 nM and ≤ 5 nM, respectively. Moreover, the IC50 with M-NFS-60 cells is 50 to 400 nM.
